# Columns and labels:
# Assay type in all cases: cell-based
# [1] = tested on: P.aeruginosa; experiment: Quantitative germ count (re-isolation, surface method) after inoculating the test preparation; conditions: Ausgangskeimzahl 2,7 x 10^5 KBE/ml
# Source text: (§1) Escherichia (E.coli) Staphylococcus (S.aureus) Streptococcus (Sc.) Pneumoniae Pseudomonas (P.aeruginosa) Staphylococcus (S. epidermidis) Haemophilus (H. influenzae)
# (§2) Die verschiedenen Testkeime wurde jeweils aus einem Lyophilisat in NaCl-Peptonpuffer homogenisiert und auf Caseinpepton-Sojymehlpepton. (Caso-) Agar (Fa. bioMérieux; Art. Nr. 43019) bez. Kochblut-Agar (Fa. bioMérieux; Art. Nr. 43109) subkultiviert. Die Teststämme wurden vor Versuchsbeginn durch Erstellen eines biochemischen Profils mittels ATB/Vitek-System (Fa. bioMérieux, Nürtingen) auf Reinheit und Identität überprüft.
# (§3) Die Ausgangskeimzahl wurde im Oberflächenverfahren mit Hilfe eines Spiralplaters (Fa. Meintrup, Lähden) ermittelt und ist im einzelnen den Tabellen 1-12 zu entnehmen.
# (§4) Die verschiedenen Testsubstanzen a. bis j. wurden jeweils zu 5 ml in sterile Zentrifugenröhrchen abgefüllt und mit ca. 10^5 KBE^*/ml (* = koloniebildende Einheiten) der oben genannten Testkeime kontaminiert. Pro Substanz wurde für jeden Testkeim und jede zu prüfende Testzeit ein separater Ansatz angeimpft, d.h.10 Testsubstanzen zu jeweils 7 Testzeiten und 6 Testkeime (= insgesamt 502 Testansätze). Nach 2, 6, 8, 24, 32, 48 und 72 Stunden wurde dann der jeweilige Testansatz 10 Minuten bei 3000 rpm abzentrifugiert. Der Überstand wurde dekantiert und das Pellet in 5 ml NaCl Peptonpuffer aufgenommen und resuspendiert. Die Suspension wurde erneut 10 Minuten bei 3000 rpm abzentrifugiert und 5 ml NaCl-Peptonpuffer aufgenommen und mittels Vortex homogenisiert.
# (§5) Die anschließende Keimzahlbestimmung erfolgte im Oberflächenverfahren durch Ausspiralisieren eines […] Aliquots auf Caso-Agar bzw. für H. influenzae auf Kochblut-Agar. Die Platten wurden bei 33±2°C für max. 4 Tage bebrütet. Die Nachweisgrenze des Verfahrens liegt bei 100 KBE/ml.
# [2] = tested on: S.aureus; experiment: as above; conditions: Ausgangskeimzahl 2,6 x 10^5 KBE/ml
# Source text: as §1, §2, §3
# as §4, with “Nach 2, 6, 8, 24, 32, 48 und 72 Stunden wurde dann der jeweilige Testansatz 10 Minuten bei 3000 rpm abzentrifugiert.” left out
# as §5
# [3] = tested on: H.influenzae; experiment: as above; conditions: Ausgangskeimzahl 2,8 x 10^5 KBE/ml
# Source text: as §1, §2, §3
# as §4, with “Nach 2, 6, 8, 24, 32, 48 und 72 Stunden wurde dann der jeweilige Testansatz 10 Minuten bei 3000 rpm abzentrifugiert.” left out
# as §5
# [4] = tested on: E.coli; experiment: as above; conditions: Ausgangskeimzahl 2,7 x 10^5 KBE/ml
# Source text: as §1, §2, §3
# as §4, with “Nach 2, 6, 8, 24, 32, 48 und 72 Stunden wurde dann der jeweilige Testansatz 10 Minuten bei 3000 rpm abzentrifugiert.” left out
# as §5
# [5] = tested on: Sc. pneumoniae; experiment: as above; conditions: Ausgangskeimzahl 3,7 x 10^5 KBE/ml
# Source text: as §1, §2, §3
# as §4, with “Nach 2, 6, 8, 24, 32, 48 und 72 Stunden wurde dann der jeweilige Testansatz 10 Minuten bei 3000 rpm abzentrifugiert.” left out
# as §5
# [6] = tested on: P.aeruginosa; experiment: Qualitative examination: enrichment of the inoculated test preparation in broth
# Source text: as §1, §2, §4
# (§6) Jeweils 2 ml der Testansätze wurden in 20 ml Caso-Bouillon oder für H. influenzae, in Fildes-Medium der Firma Becton Dickinson, ARt. Nr. 0349-739, angereichert und ebenfalls maximal 4 Tage bei 33± 2°C bebrütet. Ein negatives Ergebnis der Anreicherung belegt die Elimination der inokulierten Keime.
# [7] = tested on: H.influenzae; experiment: as above
# Source text: as §1, §2, §4, §6
# [8] = tested on: S.aureus; experiment: as above
# Source text: as §1, §2
# as §4, with “Nach 2, 6, 8, 24, 32, 48 und 72 Stunden wurde dann der jeweilige Testansatz 10 Minuten bei 3000 rpm abzentrifugiert.” left out
# as §6
# [9] = tested on: S.epidermidis; experiment: as above
# Source text: as §1, §2
# as §4, with “Nach 2, 6, 8, 24, 32, 48 und 72 Stunden wurde dann der jeweilige Testansatz 10 Minuten bei 3000 rpm abzentrifugiert.” left out
# as §6
# [10] = tested on: E.coli; experiment: as above
# Source text: as §1, §2
# as §4, with “Nach 2, 6, 8, 24, 32, 48 und 72 Stunden wurde dann der jeweilige Testansatz 10 Minuten bei 3000 rpm abzentrifugiert.” left out
# as §6
# [11] = tested on: Sc. pneumoniae; experiment: as above
# Source text: as §1, §2
# as §4, with “Nach 2, 6, 8, 24, 32, 48 und 72 Stunden wurde dann der jeweilige Testansatz 10 Minuten bei 3000 rpm abzentrifugiert.” left out
# as §6
smiles,measurement,setting,value
"CCCCCCCCCCCC[N+](C)(C)Cc1ccccc1 [Benzalkoniumchlorid 0,005 Gew.-%, Benzododeciniumchlorid]",Ergebnis der Reisolierung (in KBE/ml),[1]; 2 h after inoculation,<100 KBE/ml
same,Ergebnis der Reisolierung (in KBE/ml),[1]; 4 h after inoculation,<100 KBE/ml
same,Ergebnis der Reisolierung (in KBE/ml),[1]; 6 h after inoculation,<100 KBE/ml
same,Ergebnis der Reisolierung (in KBE/ml),[1]; 8 h after inoculation,<100 KBE/ml
same,Ergebnis der Reisolierung (in KBE/ml),[1]; 24 h after inoculation,<100 KBE/ml
same,Ergebnis der Reisolierung (in KBE/ml),[1]; 32 h after inoculation,<100 KBE/ml
same,Ergebnis der Reisolierung (in KBE/ml),[1]; 48 h after inoculation,<100 KBE/ml
same,Ergebnis der Reisolierung (in KBE/ml),[1]; 72 h after inoculation,<100 KBE/ml
same,Ergebnis der Reisolierung (in KBE/ml),[2]; 2 h after inoculation,<100 KBE/ml
same,Ergebnis der Reisolierung (in KBE/ml),[2]; 4 h after inoculation,<100 KBE/ml
same,Ergebnis der Reisolierung (in KBE/ml),[2]; 6 h after inoculation,<100 KBE/ml
same,Ergebnis der Reisolierung (in KBE/ml),[2]; 8 h after inoculation,<100 KBE/ml
same,Ergebnis der Reisolierung (in KBE/ml),[2]; 24 h after inoculation,<100 KBE/ml
same,Ergebnis der Reisolierung (in KBE/ml),[2]; 32 h after inoculation,<100 KBE/ml
same,Ergebnis der Reisolierung (in KBE/ml),[2]; 48 h after inoculation,<100 KBE/ml
same,Ergebnis der Reisolierung (in KBE/ml),[2]; 72 h after inoculation,<100 KBE/ml
same,Ergebnis der Reisolierung (in KBE/ml),[3]; 2 h after inoculation,<100 KBE/ml
same,Ergebnis der Reisolierung (in KBE/ml),[3]; 4 h after inoculation,<100 KBE/ml
same,Ergebnis der Reisolierung (in KBE/ml),[3]; 6 h after inoculation,<100 KBE/ml
same,Ergebnis der Reisolierung (in KBE/ml),[3]; 8 h after inoculation,<100 KBE/ml
same,Ergebnis der Reisolierung (in KBE/ml),[3]; 24 h after inoculation,<100 KBE/ml
same,Ergebnis der Reisolierung (in KBE/ml),[3]; 32 h after inoculation,<100 KBE/ml
same,Ergebnis der Reisolierung (in KBE/ml),[3]; 48 h after inoculation,<100 KBE/ml
same,Ergebnis der Reisolierung (in KBE/ml),[3]; 72 h after inoculation,<100 KBE/ml
same,Ergebnis der Reisolierung (in KBE/ml),[4]; 2 h after inoculation,<100 KBE/ml
same,Ergebnis der Reisolierung (in KBE/ml),[4]; 4 h after inoculation,<100 KBE/ml
same,Ergebnis der Reisolierung (in KBE/ml),[4]; 6 h after inoculation,<100 KBE/ml
same,Ergebnis der Reisolierung (in KBE/ml),[4]; 8 h after inoculation,<100 KBE/ml
same,Ergebnis der Reisolierung (in KBE/ml),[4]; 24 h after inoculation,<100 KBE/ml
same,Ergebnis der Reisolierung (in KBE/ml),[4]; 32 h after inoculation,<100 KBE/ml
same,Ergebnis der Reisolierung (in KBE/ml),[4]; 48 h after inoculation,<100 KBE/ml
same,Ergebnis der Reisolierung (in KBE/ml),[4]; 72 h after inoculation,<100 KBE/ml
same,Ergebnis der Reisolierung (in KBE/ml),[5]; 2 h after inoculation,<100 KBE/ml
same,Ergebnis der Reisolierung (in KBE/ml),[5]; 4 h after inoculation,<100 KBE/ml
same,Ergebnis der Reisolierung (in KBE/ml),[5]; 6 h after inoculation,<100 KBE/ml
same,Ergebnis der Reisolierung (in KBE/ml),[5]; 8 h after inoculation,<100 KBE/ml
same,Ergebnis der Reisolierung (in KBE/ml),[5]; 24 h after inoculation,<100 KBE/ml
same,Ergebnis der Reisolierung (in KBE/ml),[5]; 32 h after inoculation,<100 KBE/ml
same,Ergebnis der Reisolierung (in KBE/ml),[5]; 48 h after inoculation,<100 KBE/ml
same,Ergebnis der Reisolierung (in KBE/ml),[5]; 72 h after inoculation,<100 KBE/ml
same,Ergebnis der Reisolierung qualitiativ (+/-) nach Anreicherung,[6]; 2 h after inoculation,-
same,Ergebnis der Reisolierung qualitiativ (+/-) nach Anreicherung,[6]; 4 h after inoculation,-
same,Ergebnis der Reisolierung qualitiativ (+/-) nach Anreicherung,[6]; 6 h after inoculation,-
same,Ergebnis der Reisolierung qualitiativ (+/-) nach Anreicherung,[6]; 8 h after inoculation,-
same,Ergebnis der Reisolierung qualitiativ (+/-) nach Anreicherung,[6]; 24 h after inoculation,-
same,Ergebnis der Reisolierung qualitiativ (+/-) nach Anreicherung,[6]; 32 h after inoculation,-
same,Ergebnis der Reisolierung qualitiativ (+/-) nach Anreicherung,[6]; 48 h after inoculation,-
same,Ergebnis der Reisolierung qualitiativ (+/-) nach Anreicherung,[6]; 72 h after inoculation,-
same,Ergebnis der Reisolierung qualitiativ (+/-) nach Anreicherung,[7]; 2 h after inoculation,-
same,Ergebnis der Reisolierung qualitiativ (+/-) nach Anreicherung,[7]; 4 h after inoculation,-
same,Ergebnis der Reisolierung qualitiativ (+/-) nach Anreicherung,[7]; 6 h after inoculation,-
same,Ergebnis der Reisolierung qualitiativ (+/-) nach Anreicherung,[7]; 8 h after inoculation,-
same,Ergebnis der Reisolierung qualitiativ (+/-) nach Anreicherung,[7]; 24 h after inoculation,-
same,Ergebnis der Reisolierung qualitiativ (+/-) nach Anreicherung,[7]; 32 h after inoculation,-
same,Ergebnis der Reisolierung qualitiativ (+/-) nach Anreicherung,[7]; 48 h after inoculation,-
same,Ergebnis der Reisolierung qualitiativ (+/-) nach Anreicherung,[7]; 72 h after inoculation,-
same,Ergebnis der Reisolierung qualitiativ (+/-) nach Anreicherung,[8]; 2 h after inoculation,-
same,Ergebnis der Reisolierung qualitiativ (+/-) nach Anreicherung,[8]; 4 h after inoculation,-
same,Ergebnis der Reisolierung qualitiativ (+/-) nach Anreicherung,[8]; 6 h after inoculation,-
same,Ergebnis der Reisolierung qualitiativ (+/-) nach Anreicherung,[8]; 8 h after inoculation,-
same,Ergebnis der Reisolierung qualitiativ (+/-) nach Anreicherung,[8]; 24 h after inoculation,-
same,Ergebnis der Reisolierung qualitiativ (+/-) nach Anreicherung,[8]; 32 h after inoculation,-
same,Ergebnis der Reisolierung qualitiativ (+/-) nach Anreicherung,[8]; 48 h after inoculation,-
same,Ergebnis der Reisolierung qualitiativ (+/-) nach Anreicherung,[8]; 72 h after inoculation,-
same,Ergebnis der Reisolierung qualitiativ (+/-) nach Anreicherung,[9]; 2 h after inoculation,-
same,Ergebnis der Reisolierung qualitiativ (+/-) nach Anreicherung,[9]; 4 h after inoculation,-
same,Ergebnis der Reisolierung qualitiativ (+/-) nach Anreicherung,[9]; 6 h after inoculation,-
same,Ergebnis der Reisolierung qualitiativ (+/-) nach Anreicherung,[9]; 8 h after inoculation,-
same,Ergebnis der Reisolierung qualitiativ (+/-) nach Anreicherung,[9]; 24 h after inoculation,-
same,Ergebnis der Reisolierung qualitiativ (+/-) nach Anreicherung,[9]; 32 h after inoculation,-
same,Ergebnis der Reisolierung qualitiativ (+/-) nach Anreicherung,[9]; 48 h after inoculation,-
same,Ergebnis der Reisolierung qualitiativ (+/-) nach Anreicherung,[9]; 72 h after inoculation,-
same,Ergebnis der Reisolierung qualitiativ (+/-) nach Anreicherung,[10]; 2 h after inoculation,-
same,Ergebnis der Reisolierung qualitiativ (+/-) nach Anreicherung,[10]; 4 h after inoculation,-
same,Ergebnis der Reisolierung qualitiativ (+/-) nach Anreicherung,[10]; 6 h after inoculation,-
same,Ergebnis der Reisolierung qualitiativ (+/-) nach Anreicherung,[10]; 8 h after inoculation,-
same,Ergebnis der Reisolierung qualitiativ (+/-) nach Anreicherung,[10]; 24 h after inoculation,-
same,Ergebnis der Reisolierung qualitiativ (+/-) nach Anreicherung,[10]; 32 h after inoculation,-
same,Ergebnis der Reisolierung qualitiativ (+/-) nach Anreicherung,[10]; 48 h after inoculation,-
same,Ergebnis der Reisolierung qualitiativ (+/-) nach Anreicherung,[10]; 72 h after inoculation,-
same,Ergebnis der Reisolierung qualitiativ (+/-) nach Anreicherung,[11]; 2 h after inoculation,-
same,Ergebnis der Reisolierung qualitiativ (+/-) nach Anreicherung,[11]; 4 h after inoculation,-
same,Ergebnis der Reisolierung qualitiativ (+/-) nach Anreicherung,[11]; 6 h after inoculation,-
same,Ergebnis der Reisolierung qualitiativ (+/-) nach Anreicherung,[11]; 8 h after inoculation,-
same,Ergebnis der Reisolierung qualitiativ (+/-) nach Anreicherung,[11]; 24 h after inoculation,-
same,Ergebnis der Reisolierung qualitiativ (+/-) nach Anreicherung,[11]; 32 h after inoculation,-
same,Ergebnis der Reisolierung qualitiativ (+/-) nach Anreicherung,[11]; 48 h after inoculation,-
same,Ergebnis der Reisolierung qualitiativ (+/-) nach Anreicherung,[11]; 72 h after inoculation,-
